Test: Interaction of perfume components with cyclodextrin (CD interaction)
Type: physicochemical
Conditions: perfume component versus cyclodextrin
From the text: Hydrophobic perfume ingredients have a tendency to complex with the cyclodextrins. The degree of hydrophobicity of a perfume ingredient can be correlated with its octanol/water partition coefficient P. The octanol/water partition coefficient of a perfume ingredient is the ratio between its equilibrium concentration in octanol and in water. A perfume ingredient with a greater partition coefficient P is considered to be more hydrophobic. Conversely, a perfume ingredient with a smaller partition coefficient P is considered to be more hydrophilic. […].
The following table illustrates the molecular weight property of some of the preferred perfume versus non-preferred perfume components.

Row | Compound | CD interaction
1 | CCC(=O)OC1CC2CC1C1CC=CC21 (stereo not shown) [Frutene] | strong
2 | CC(C)(O)CCCC1=CCC(C=O)CC1 (stereo not shown) [Lyral] | weak
3 | CCC(C)(O)CCCC(C)C (stereo not shown) [Tetrahydrolinalol] | significant
4 | CCCCCCOC(=O)c1ccccc1O [Hexyl Salicylate] | weak
5 | CC(=O)OC(C)(C)C1CC=C(C)CC1 (stereo not shown) [Terpinyl Acetate] | significant
6 | CC(=O)OC1CCC(C(C)(C)C)CC1 (stereo not shown) [Vertenex, para-tert-butylcyclohexyl acetate] | strong
7 | CC(=O)OC1CC2CC1C1CC=CC21 (stereo not shown) [Flor Acetate] | strong
8 | CCCCCC1C(=O)CCC1CC(=O)OC (stereo not shown) [Methyl Dihydro Jasmonate] | weak
9 | a-Me Ionone | strong
10 | CCCCCCC(C=O)=Cc1ccccc1 [Hexyl cinnamic Aldehyde] | weak
11 | CC(=O)/C=C/C1C(C)=CCCC1(C)C (stereo not shown) [a-ionone] | strong
12 | CC(C=O)Cc1ccc(C(C)(C)C)cc1 (stereo not shown) [Lilial, p-t-bucinal] | strong
13 | CC1COCc2cc3c(cc21)C(C)(C)C(C)C3(C)C (stereo not shown) [Galaxolide] | weak
14 | CC(=O)C1(C)CC2=C(CCCC2(C)C)CC1C (stereo not shown) [Iso-E Super] | weak
15 | CCCCCCCCCCCCCC(=O)OC(C)C [Iso-propyl Myristate] | weak
16 | O=C(Cc1ccccc1)OCCc1ccccc1 [Phenyl-Ethyl-Phenyl Acetate] | weak
17 | CCOC(=O)c1ccccc1C(=O)OCC [Diethyl Phthalate] | weak
18 | CC(=O)C(C)=C(C)C(C)C(C)(C)C (stereo not shown) [Koavone] | strong
19 | CC(C=O)Cc1ccc(C(C)C)cc1 (stereo not shown) [Cymal] | strong

Source: patent US6833342B2, “Method of deodorizing and/or cleaning carpet using a composition comprising odor control agent” (The Procter & Gamble Company, priority 1999, dated 2004)
